From patent US12201622B2, “Continuous delivery of lenalidomide and other immunomodulatory agents” (Starton Therapeutics, Inc., priority 2019, dated 2025)
“Also recorded” adds a separate entry of the source.

Legend:
[1] = Body weight and hematologic toxicity (WBC, PLT, ANC) in xenografted SCID mice; assay type: in vivo, CB.17 SCID mouse; details: for ANC: normal range 0.77-2.5; for WBC: normal range 1.4-5.4; for PLT: normal range 733-1441
Experimental: (§1) Six groups of female CB.17 SCID mouse, each containing ten mice, were subcutaneously injected with 1×10^7 H929 multiple myeloma tumor cells in 50% Matrigel. After the tumor reached an average size of 100-150 mm^3, an iPrecio pump was surgically implanted into each of the mice. Dosing began twenty-four hours post pump implantation. Group 1, the control group, was treated with vehicle via intraperitoneal injection once a day. Group 2 was treated with lenalidomide via intraperitoneal injection once a day. Each of Groups 3-6 was treated lenalidomide via continuous subcutaneous infusion at different hourly rate. The dosing lasted 14 days followed by one day off the treatment and lasted for another 14 days. The iPrecio pump was replaced after 14 days. The formulation used in Groups 2-6 contains 20% PEG400 in water as the carrier. Blood was drawn at predetermined time points and analyzed

[2] = test system: H929 multiple myeloma tumor cells; experiment: Efficacy of lenalidomide continuous infusion in H929 myeloma xenograft model; assay type: in vivo, CB.17 SCID mouse
From the text: In this study, a composition comprising lenalidomide was continuously delivered via subcutaneous infusion or was delivered once a day via intraperitoneal injection to SCID mice wherein the mice were implanted with a H929 multiple myeloma xenograft.
as §1
The table below lists the daily dose and schedule for each of the six groups.

[3] = Blood levels of lenalidomide in SCID mice after daily intraperitoneal dose; assay type: in vivo, SCID mouse; details: Group 2: 500 mcg ip once a day
Experimental: In the study described in Example 1, the SCID mice in Group 2 were given the standard of care treatment which is a daily intraperitoneal dose of 25 mg/kg (500 mcg for 20 gm mouse) administered once a day. […] For example, if the continuous blood level is greater than that observed at 16 hours but less than that observed at 10 hours in daily intraperitoneal dose of 500 mcg administered once a day, it is effective and non-toxic. The maintenance of continuous dose specific blood levels in terms of their time range are predicted to be safe and effective and result in activity in humans.
as §1
The multiple myeloma study in SCID mice provides pharmacokinetically modeled data to support three treatment paradigms. The standard of care treatment in the mouse model study is a daily intraperitoneal dose of 500 mcg administered once a day (see Group 2). […] The range of tolerable and effective blood levels ranged from the blood level at 10 hours to the blood level at 16 hours. Continuous blood levels of greater than those observed at 8 hours or 0.29 mcg/mL and lower than those observed at 18 hours or 0.013 mcg/mL were either toxic or ineffective, respectfully. The maintenance of continuous dose specific blood levels in terms of their time range are predicted to be safe and effective and result in activity in humans.

[4] = Group 3: 144 μg/day (6 μg/hr) sc continuous, day 8
[5] = Group 4: 48 μg/day (2 μg/hr) sc continuous, day 8
[6] = Group 5: 24 μg/day (1 μg/hr) sc continuous, day 8
[7] = Group 6: 12 μg/day (.5 μg/hr) sc continuous, day 8

Nc1cccc2c1CN(C1CCC(=O)NC1=O)C2=O (stereo not shown) [lenalidomide, 3-(4-amino-1-3-dihydro-1-oxo-2H-isoindol-2yl)-2,6-piperidinedione]
ANC ([1]; Group 2: 25 mg/kg ip qd, day 8): 1.2 10^3 cells/μL
WBC ([1]; Group 2: 25 mg/kg ip qd, day 8): 1.8 10^3 cells/μL
PLT ([1]; Group 2: 25 mg/kg ip qd, day 8): 850 10^3 cells/μL
ANC [1, 4]: 2.4 10^3 cells/μL
WBC [1, 4]: 2.8 10^3 cells/μL
PLT [1, 4]: 1360 10^3 cells/μL
ANC [1, 5]: 1.9 10^3 cells/μL
WBC [1, 5]: 2.4 10^3 cells/μL
PLT [1, 5]: 1345 10^3 cells/μL
ANC [1, 6]: 2.8 10^3 cells/μL
WBC [1, 6]: 3.3 10^3 cells/μL
PLT [1, 6]: 1410 10^3 cells/μL
ANC [1, 7]: 2.5 10^3 cells/μL
WBC [1, 7]: 3.2 10^3 cells/μL
PLT [1, 7]: 1535 10^3 cells/μL
body weight ([1]; continuous sc infusion (Group 3, 144 μg/day)): insignificant weight loss; also recorded: did not result in substantial loss of body weight
hematologic toxicity ([1]; continuous sc infusion, Groups 3-6 (12-144 μg/day), day 8): no substantial hematologic toxicity; also recorded: did not result in substantial loss of body weight or hematologic toxicity
survival (Kaplan-Meier) ([2]; Group 2: 500 μg/day ip qd): no mouse survived at day 52
tumor volume ([2]; Group 2: 25 mg/kg (500 μg/day) ip qd x 14/1 day off/qd x 14, 25 mg/kg): failed to inhibit the growth of the tumor volume; also recorded: slowed progression but did not inhibit the growth of the tumor size
tumor volume ([2]; Group 3: 144 μg/day (6 μg/hr) continuous sc infusion, 14 days/1 day off/14 days): the only group having tumor volume reduced during the treatment schedule; also recorded: effectively reduced the tumor size in all animals treated at 6 mcg/hr
survival (Kaplan-Meier) ([2]; Group 3: 144 μg/day continuous sc infusion, day 1 to day 95): the only group having mice survived for 95 days
blood level trough [3]: 2 ng/mL
Cmax ([3]; female, CB.17 SCID, mouse, blood, 500 ug, at 0.08 hours, read-out: blood level Cmax): 2900 ng/mL
concentration at 8 h ([3]; female, CB.17 SCID, mouse, blood, 25 mg/kg, read-out: blood level at 8 hours): 290 ng/mL
concentration at 18 h ([3]; female, CB.17 SCID, mouse, blood, 25 mg/kg, read-out: blood level at 18 hours): 13 ng/mL
